Values quoted from earlier work as cited in US20070231385A1, “Controlled Release Pharmaceutical Composition and a Process for Preparing the Same” (Lupin Limited, priority 2003, published 2007).

Details: background statement

Question: Which serum half-life does the source give for `Cc1ccnc2c1NC(=O)c1cccnc1N2C1CC1` [Nevaripine] here?
Answer: more than 25 hours
